The record followed here is ChEMBL document CHEMBL4219189, “Designing novel inhibitors against falcipain-2 of Plasmodium falciparum” (Bioorg Med Chem Lett, 2018).

Calls of active or inactive are those of the source. The rule behind the calls is not given here.

In the first assay the test system is Plasmodium falciparum. Nature of the assay: Resistance index, ratio of IC50 for chloroquine sensitive Plasmodium falciparum MRC-02 schizont stage infected in human erythrocytes to IC50 for chloroquine resistant Plasmodium falciparum RKL9 schizont stage infected in human erythrocytes.
Details: not given
Consider `CCN(CC)c1ccc2cc(C3=NNC(c4ccc(Cl)cc4)C3)c(=O)oc2c1` (centres undefined), for which the “Ratio IC50” value amounted to 0.68.
With `CCN(CC)c1ccc2cc(C3=NN(C(=O)c4ccccc4)C(c4ccc(F)cc4)C3)c(=O)oc2c1` (centres undefined), the “Ratio IC50” value is reported as 2.2.
Still for that read-out and setting: the result for `CCN(CC)c1ccc2cc(C3=NNC(c4ccc(O)cc4)C3)c(=O)oc2c1` (centres undefined) reads 0.89.
On to `CCN(CC)c1ccc2cc(C3=NN(C(=O)c4ccccc4)C(c4ccc(O)cc4)C3)c(=O)oc2c1` (centres undefined), for which the “Ratio IC50” value was 0.53.
Regarding `CCN(CC)c1ccc2cc(C3=NN(C(=O)c4ccccc4)C(c4ccc([N+](=O)[O-])cc4)C3)c(=O)oc2c1` (centres undefined), the “Ratio IC50” value worked out at 1.6.
On the same count and under the same terms, for `CCN(CC)c1ccc2cc(C3=NN(c4ccccc4)C(c4ccc([N+](=O)[O-])cc4)C3)c(=O)oc2c1` (centres undefined) the value was 0.5; for `CCN(CC)c1ccc2cc(C3=NN(c4ccccc4)C(c4ccc(Cl)cc4)C3)c(=O)oc2c1` (centres undefined), 1.1; for `CCN(CC)c1ccc2cc(C3=NN(c4ccccc4)C(c4ccc(F)cc4)C3)c(=O)oc2c1` (centres undefined), 0.79.
Regarding `CCN(CC)c1ccc2cc(C3=NNC(c4ccc([N+](=O)[O-])cc4)C3)c(=O)oc2c1` (centres undefined), the “Ratio IC50” value is listed as 0.64.
Consider `CCN(CC)c1ccc2cc(C3=NN(c4ccccc4)C(c4ccc(O)cc4)C3)c(=O)oc2c1` (centres undefined), for which the “Ratio IC50” value was found to be 0.69.
As for `CCN(CC)c1ccc2cc(C3=NNC(c4ccc(F)cc4)C3)c(=O)oc2c1` (centres undefined), the “Ratio IC50” value came out at 0.76.

A further assay concerns Plasmodium falciparum. Nature of the assay: Inhibition of chloroquine resistant Plasmodium falciparum RKL9 schizont stage infected in human erythrocytes assessed as reduction in […] growth after 24 hrs by Giemsa staining based assay. To be noted: RKL9, 24 h. The assay is classed as cell-based.
By IC50 is commonly meant the concentration that inhibits the measured activity by half. In the case of `CCN(CC)c1ccc2cc(C3=NNC(c4ccc(Cl)cc4)C3)c(=O)oc2c1` (centres undefined), the IC50 was determined as 27.1 µM.
Take `CCN(CC)c1ccc2cc(C3=NN(C(=O)c4ccccc4)C(c4ccc(F)cc4)C3)c(=O)oc2c1` (centres undefined): the IC50 was 1.9 µM.
Still for that read-out and setting: the result for `CCN(CC)c1ccc2cc(C3=NNC(c4ccc(O)cc4)C3)c(=O)oc2c1` (centres undefined) reads 29.9 µM.
As to `CCN(CC)c1ccc2cc(C3=NNC(c4ccccc4)C3)c(=O)oc2c1` (centres undefined), the IC50 was above 100 µM.
Same read-out and setting: for `CCN(CC)c1ccc2cc(C3=NN(C(=O)c4ccccc4)C(c4ccc(O)cc4)C3)c(=O)oc2c1` (centres undefined) the value was 26.7 µM.
As for `CCN(CC)c1ccc2cc(C3=NN(C(=O)c4ccccc4)C(c4ccc([N+](=O)[O-])cc4)C3)c(=O)oc2c1` (centres undefined), the IC50 was found to be 2.1 µM.
For `CCN(CC)c1ccc2cc(C3=NN(c4ccccc4)C(c4ccc([N+](=O)[O-])cc4)C3)c(=O)oc2c1` (centres undefined), the IC50 was 41.6 µM.
With `CCN(CC)c1ccc2cc(C3=NN(C(=O)c4ccccc4)C(c4ccc(Cl)cc4)C3)c(=O)oc2c1` (centres undefined), the half-inhibitory concentration (IC50) is above 100 µM.
For the compound `CCN(CC)c1ccc2cc(C3=NN(c4ccccc4)C(c4ccc(Cl)cc4)C3)c(=O)oc2c1` (centres undefined), the IC50 turned out to be 9.1 µM.
`CCN(CC)c1ccc2cc(C3=NN(c4ccccc4)C(c4ccc(F)cc4)C3)c(=O)oc2c1` (centres undefined): the IC50 was found to be 33.8 µM.
On to `CCN(CC)c1ccc2cc(C3=NN(C(=O)c4ccccc4)C(c4ccccc4)C3)c(=O)oc2c1` (centres undefined), for which the IC50 was above 100 µM.
Same read-out and setting: the result for `CCN(CC)c1ccc2cc(C3=NNC(c4ccc([N+](=O)[O-])cc4)C3)c(=O)oc2c1` (centres undefined) reads 30.4 µM; that for `CCN(CC)c1ccc2cc(C3=NN(c4ccccc4)C(c4ccc(O)cc4)C3)c(=O)oc2c1` (centres undefined), 25.3 µM; that for `CCN(CC)c1ccc2cc(C3=NNC(c4ccc(F)cc4)C3)c(=O)oc2c1` (centres undefined), 44.5 µM.
With `CCN(CC)c1ccc2cc(C3=NN(c4ccccc4)C(c4ccccc4)C3)c(=O)oc2c1` (centres undefined), the half-inhibitory concentration (IC50) was above 100 µM.

Another assay has as its system Plasmodium falciparum. Description: Inhibition of chloroquine sensitive Plasmodium falciparum MRC-02 schizont stage infected in human erythrocytes assessed as reduction in […] growth after 24 hrs by Giemsa staining based assay. The assay is classed as cell-based. To be noted: MRC-02, 24 h.
Turning to `CCN(CC)c1ccc2cc(C3=NNC(c4ccc(Cl)cc4)C3)c(=O)oc2c1` (centres undefined), the half-inhibitory concentration (IC50) was found to be 18.6 µM.
On the same count and under the same terms, for `CCN(CC)c1ccc2cc(C3=NN(C(=O)c4ccccc4)C(c4ccc(F)cc4)C3)c(=O)oc2c1` (centres undefined) the value was 4.2 µM; for `CCN(CC)c1ccc2cc(C3=NNC(c4ccc(O)cc4)C3)c(=O)oc2c1` (centres undefined), 26.7 µM.
For the compound `CCN(CC)c1ccc2cc(C3=NNC(c4ccccc4)C3)c(=O)oc2c1` (centres undefined), the IC50 is above 100 µM.
Turning to `CCN(CC)c1ccc2cc(C3=NN(C(=O)c4ccccc4)C(c4ccc(O)cc4)C3)c(=O)oc2c1` (centres undefined), the IC50 is 14.3 µM.
On the same count and under the same terms, the result for `CCN(CC)c1ccc2cc(C3=NN(C(=O)c4ccccc4)C(c4ccc([N+](=O)[O-])cc4)C3)c(=O)oc2c1` (centres undefined) reads 3.3 µM; that for `CCN(CC)c1ccc2cc(C3=NN(c4ccccc4)C(c4ccc([N+](=O)[O-])cc4)C3)c(=O)oc2c1` (centres undefined), 20.9 µM; that for `CCN(CC)c1ccc2cc(C3=NN(C(=O)c4ccccc4)C(c4ccc(Cl)cc4)C3)c(=O)oc2c1` (centres undefined), above 100 µM.
In the case of `CCN(CC)c1ccc2cc(C3=NN(c4ccccc4)C(c4ccc(Cl)cc4)C3)c(=O)oc2c1` (centres undefined), the IC50 was 10.4 µM.
Take `CCN(CC)c1ccc2cc(C3=NN(c4ccccc4)C(c4ccc(F)cc4)C3)c(=O)oc2c1` (centres undefined): the IC50 came out at 26.9 µM.
Regarding `CCN(CC)c1ccc2cc(C3=NN(C(=O)c4ccccc4)C(c4ccccc4)C3)c(=O)oc2c1` (centres undefined), the IC50 was above 100 µM.
The same measure, in the same setting: the result for `CCN(CC)c1ccc2cc(C3=NNC(c4ccc([N+](=O)[O-])cc4)C3)c(=O)oc2c1` (centres undefined) reads 19.7 µM.
For the compound `CCN(CC)c1ccc2cc(C3=NN(c4ccccc4)C(c4ccc(O)cc4)C3)c(=O)oc2c1` (centres undefined), the IC50 is 17.5 µM.
Take `CCN(CC)c1ccc2cc(C3=NNC(c4ccc(F)cc4)C3)c(=O)oc2c1` (centres undefined): the IC50 was 34.2 µM.
Still for that read-out and setting: the result for `CCN(CC)c1ccc2cc(C3=NN(c4ccccc4)C(c4ccccc4)C3)c(=O)oc2c1` (centres undefined) reads above 100 µM.

A further assay has as its system Plasmodium berghei. Description: Antimalarial activity against Plasmodium berghei infected in Swiss albino mouse assessed as increase in mouse survival at 20 mg/kg/day, po for 4 consecutive days starting from 4 hrs post infection measured on day 28 by Giemsa staining based microscopic method. The format is functional, organism-based.
Details: not given
Consider `CCN(CC)CCCC(C)Nc1ccnc2cc(Cl)ccc12` (centres undefined) [CHLOROQUINE], for which the result was Active.

The subject of a further assay is Plasmodium berghei. Description: Antimalarial activity against Plasmodium berghei infected in Swiss albino mouse assessed as increase in mouse survival at 25 mg/kg/day, po for 4 consecutive days starting from 4 hrs post infection measured on day 28 by Giemsa staining based microscopic method. The assay is classed as functional, organism-based.
Details: not given
As to `CCN(CC)c1ccc2cc(C3=NN(C(=O)c4ccccc4)C(c4ccc(F)cc4)C3)c(=O)oc2c1` (centres undefined), the result was Active.
As to `CCN(CC)c1ccc2cc(C3=NN(C(=O)c4ccccc4)C(c4ccc([N+](=O)[O-])cc4)C3)c(=O)oc2c1` (centres undefined), the outcome was inactive.
`CCN(CC)c1ccc2cc(C3=NN(c4ccccc4)C(c4ccc(Cl)cc4)C3)c(=O)oc2c1` (centres undefined): the outcome was inactive.

For another assay, the system named is Plasmodium berghei. Nature of the assay: Antimalarial activity against Plasmodium berghei infected in Swiss albino mouse assessed as suppression of parasitaemia at 25 mg/kg/day, po for 4 consecutive days starting from 4 hrs post infection measured on day 4 post last dose by Giemsa staining based microscopic method relative to control. The assay is classed as functional.
Details: not given
Regarding `CCN(CC)c1ccc2cc(C3=NN(C(=O)c4ccccc4)C(c4ccc(F)cc4)C3)c(=O)oc2c1` (centres undefined), the Activity worked out at 100%.
On the same count and under the same terms, for `CCN(CC)c1ccc2cc(C3=NN(C(=O)c4ccccc4)C(c4ccc([N+](=O)[O-])cc4)C3)c(=O)oc2c1` (centres undefined) the value was 62%.
On the same count and under the same terms, the result for `CCN(CC)c1ccc2cc(C3=NN(c4ccccc4)C(c4ccc(Cl)cc4)C3)c(=O)oc2c1` (centres undefined) reads 34%.

A further assay relates to Plasmodium berghei. Nature of the assay: Antimalarial activity against Plasmodium berghei infected in Swiss albino mouse assessed as suppression of parasitaemia at 20 mg/kg/day, po for 4 consecutive days starting from 4 hrs post infection measured on day 4 post last dose by Giemsa staining based microscopic method relative to control.
Details: not given
The assay is classed as functional.
With `CCN(CC)CCCC(C)Nc1ccnc2cc(Cl)ccc12` (centres undefined) [CHLOROQUINE], the Activity is recorded as 100%.
